Measurements reported in patent US20210392890A1, “COMPOSITIONS COMPRISING PYRIDINE CARBOXYLATE HERBICIDES AND PLANT GROWTH REGULATORS” (Corteva Agriscience LLC, priority 2018, published 2021).
“And” between values parts separate entries of the source, which are not always exact repeats. Equal values may be shown once.

Columns and labels:
Format in all cases: in vivo
[1] = system: Veronica persica (Persian speedwell); assay: Greenhouse postemergence herbicidal effect on VERPE
Description: (§1) Seeds of the desired test plant species were planted in a 90:10% v/v (volume/volume) mixture of PRO-MIX® BX (Premier Tech Horticulture, Quakertown, Pa., USA) and PROFILE® GREENS GRADE™ (Profile Products LLC, Buffalo Grove, Ill., USA) planting mixture, which typically has a pH of 5.2 to 6.2 and an organic matter content of at least 50 percent, in plastic pots with a surface area of 103.2 square centimeters (cm^2). In some aspects, to help ensure good germination and healthy plants, a fungicide treatment and/or other chemical or physical treatment was applied. The plants were grown for 7-36 days (d) in a greenhouse with an approximate 14-hour (h) photoperiod which was maintained at about 23° C. during the day and 22° C. during the night. Nutrients and water were added on a regular basis and supplemental lighting was provided with overhead metal halide 1000-Watt lamps as necessary. The plants were employed for testing when they reached the second or third true leaf stage.
(§2) Emulsifiable concentrates of each of each pyridine carboxylate herbicide (Compound A or Compound B) were prepared at 100 grams acid equivalent per liter (g ae/L). The emulsifiable concentrates also included a safener, cloquintocet-mexyl, at 120 grams active ingredient per liter (g ai/L). […]
(§3) The treated plants and control plants were placed in a greenhouse as described above and watered by sub-irrigation to prevent wash-off of the test compounds. After 20-22 d, the condition of the test plants as compared with that of the control plants was determined visually and scored on a scale of 0 to 100 percent where 0 corresponds to no injury and 100 corresponds to complete kill.

[2] = system: Anthemis arvensis (corn chamomile); assay: Greenhouse postemergence herbicidal effect on ANTAR
Description: as §1, §2, §3

[3] = system: Matricaria inodora (scentless chamomile); assay: Greenhouse postemergence herbicidal effect on MATIN
Description: as §1, §2, §3

Kochia scoparia (kochia) = assay: Greenhouse postemergence herbicidal effect on KCHSC; conditions: for Herbicidal Effects (% visual injury) KCHSC Obs: Ethephon 0 g/ha
Description: as §1
(§4) Emulsifiable concentrates of each of each pyridine carboxylate herbicide (Compound A or Compound B) were prepared at 100 grams acid equivalent per liter (g ae/L). The emulsifiable concentrates also included a safener, cloquintocet-mexyl, at 120 grams active ingredient per liter (g ai/L). An aliquot of each emulsifiable concentrate was placed in a 25 mL glass vial and diluted with an aqueous mixture of 1.25% (v/v) ACTIROB® B esterified rapeseed oil (Bayer Crop Science, Research Triangle Park, N.C., USA) or MSO® Concentrate with LECI-TECH® methylated soybean oil (Loveland Products, Loveland, Colo., USA) to obtain concentrated stock solutions at the highest application rate for each herbicide, based upon a 12 milliliter (mL) application volume at a rate of 187 liters per hectare (L/ha). The concentrated stock solutions were further diluted with an aqueous mixture of 1.25% v/v ACTIROB® B or MSO® Concentrate with LECI-TECH® to obtain stock solutions at reduced application rates for each herbicide. Spray solutions of the herbicide combinations (Compound A or Compound B plus the PGR) were prepared by adding weighed amounts or aliquots of the PGR to the stock solutions of Compound A or Compound B to form 12-mL spray solutions in two-way combinations.
(§5) The spray solutions were applied to the plant material with an overhead Mandel track sprayer equipped with 8002E nozzles calibrated to deliver 187 L/ha over an application area of 0.503 square meters (m^2) at a spray height of 18 inches (43 centimeters (cm)) above the average plant canopy. Control plants were sprayed in the same manner with the solvent blank. All pyridine carboxylate herbicide (component a) application rates are given as “g ae/ha” and all PGR (component b) application rates are given as “g ai/ha.”
as §3

Glycine max (soybean) = assay: Greenhouse postemergence herbicidal effect on GLXMA
Description: as §1, §4, §5, §3

[4] = system: Veronica hederifolia (ivy-leaved speedwell); assay: Greenhouse postemergence herbicidal effect on VERHE
Description: as §1, §2, §3

[5] = system: Stellaria media (chickweed); assay: Greenhouse postemergence herbicidal effect on STEME; conditions: for Herbicidal Effects (% visual injury) STEME Obs: Ethephon 0 g/ha
Description: as §1, §4, §5, §3

[6] = system: Brassica napus (spring rape); assay: Greenhouse postemergence herbicidal effect on BRSNN; conditions: for Herbicidal Effects (% visual injury) BRSNN Obs: Ethephon 0 g/ha
Description: as §1, §4, §5, §3

[7] = system: Viola tricolor (wild pansy); assay: Greenhouse postemergence herbicidal effect on VIOTR; conditions: for Herbicidal Effects (% visual injury) VIOTR Obs: Ethephon 0 g/ha
Description: as §1, §4, §5, §3

[8] = system: Salsola kali (Russian thistle); assay: Greenhouse postemergence herbicidal effect on SASKR
Description: as §1, §2, §3

[9] = system: Chenopodium album L. (common lambsquarters); assay: Greenhouse postemergence herbicidal effect on CHEAL; conditions: Ethephon 0 g/ha
Description: as §1, §4, §5, §3

[10] = system: Lamium purpureum (purple deadnettle); assay: Greenhouse postemergence herbicidal effect on LAMPU
Description: as §1, §2, §3

[11] = system: Capsella bursa-pastoris (shepherd's purse); assay: Greenhouse postemergence herbicidal effect on CAPBP
Description: as §1, §2, §3

[12] = system: Echinochloa crus-galli (barnyard grass); assay: Greenhouse postemergence herbicidal effect on ECHCG; conditions: Ethephon 0 g/ha
Description: as §1, §2
as §3, with “kill. […]” for “kill.”

[13] = system: Polygonum convolvulus (wild buckwheat); assay: Greenhouse postemergence herbicidal effect on POLCO; conditions: for Herbicidal Effects (% visual injury) POLCO Obs: Ethephon 0 g/ha
Description: as §1, §4, §5, §3

[14] = system: Rumex obtusifolia (broadleaf dock); assay: Greenhouse postemergence herbicidal effect on RUMOB; conditions: Ethephon 0 g/ha
Description: as §1, §2
as §3, with “kill. […]” for “kill.”

[15] = system: Cirsium arvense (Canada thistle); assay: Greenhouse postemergence herbicidal effect on CIRAR; conditions: for Herbicidal Effects (% visual injury) CIRAR Obs: Ethephon 0 g/ha
Description: as §1, §4, §5, §3

## N#CCOC(=O)c1nc(-c2ccc3cc[nH]c3c2F)c(F)c(N)c1Cl [Compound A, cyanomethyl 4-amino-3-chloro-5-fluoro-6-(7-fluoro-1H-indol-6-yl)pyridine-2-carboxylate]
[1]; herbicide 7.5 g ae/ha alone
  % visual injury Obs: 78%
[1]; herbicide 10 g ae/ha alone
  % visual injury Obs: 90%
[1]; herbicide 15 g ae/ha alone
  % visual injury Obs: 93%
[2]; herbicide 7.5 g ae/ha alone
  % visual injury Obs: 68%
[2]; herbicide 10 g ae/ha alone
  % visual injury Obs: 70%
[2]; herbicide 15 g ae/ha alone
  % visual injury Obs: 88%
[3]; herbicide 7.5 g ae/ha alone
  % visual injury Obs: 55%
[3]; herbicide 10 g ae/ha alone
  % visual injury Obs: 60%
[3]; herbicide 15 g ae/ha alone
  % visual injury Obs: 83%
Kochia scoparia (kochia); Compound A 7.5 g/ha
  Herbicidal Effects (% visual injury) KCHSC Obs: 70%
Kochia scoparia (kochia); Compound A 10 g/ha
  Herbicidal Effects (% visual injury) KCHSC Obs: 65%
Kochia scoparia (kochia); herbicide 7.5 g ae/ha alone
  % visual injury Obs: 63% and 75%
Kochia scoparia (kochia); herbicide 10 g ae/ha alone
  % visual injury Obs: 65% and 73%
Kochia scoparia (kochia); herbicide 15 g ae/ha alone
  % visual injury Obs: 63%
Glycine max (soybean); herbicide 7.5 g ae/ha alone
  % visual injury Obs: 100% and 80%
Glycine max (soybean); herbicide 10 g ae/ha alone
  % visual injury Obs: 99% and 90%
[4]; herbicide 7.5 g ae/ha alone
  % visual injury Obs: 68%
[4]; herbicide 10 g ae/ha alone
  % visual injury Obs: 73%
[4]; herbicide 15 g ae/ha alone
  % visual injury Obs: 75%
[5]; Compound A 7.5 g/ha
  Herbicidal Effects (% visual injury) STEME Obs: 100%
[5]; Compound A 10 g/ha
  Herbicidal Effects (% visual injury) STEME Obs: 100%
[5]; herbicide 7.5 g ae/ha alone
  % visual injury Obs: 89% and 85%
[5]; herbicide 10 g ae/ha alone
  % visual injury Obs: 90% and 88%
[5]; herbicide 15 g ae/ha alone
  % visual injury Obs: 89%
[6]; Compound A 7.5 g/ha
  Herbicidal Effects (% visual injury) BRSNN Obs: 45%
[6]; Compound A 10 g/ha
  Herbicidal Effects (% visual injury) BRSNN Obs: 55%
[6]; herbicide 7.5 g ae/ha alone
  % visual injury Obs: 65%
[6]; herbicide 10 g ae/ha alone
  % visual injury Obs: 65%
[7]; Compound A 7.5 g/ha
  Herbicidal Effects (% visual injury) VIOTR Obs: 13%
[7]; Compound A 10 g/ha
  Herbicidal Effects (% visual injury) VIOTR Obs: 20%
[7]; herbicide 15 g ae/ha alone
  % visual injury Obs: 15%
[8]; herbicide 7.5 g ae/ha alone
  % visual injury Obs: 50%
[8]; herbicide 10 g ae/ha alone
  % visual injury Obs: 60%
[8]; herbicide 15 g ae/ha alone
  % visual injury Obs: 63%
[9]; Compound A 7.5 g/ha
  Herbicidal Effects (% visual injury) CHEAL Obs: 100%
[9]; Compound A 10 g/ha
  Herbicidal Effects (% visual injury) CHEAL Obs: 100%
[10]; herbicide 7.5 g ae/ha alone
  % visual injury Obs: 68%
[10]; herbicide 10 g ae/ha alone
  % visual injury Obs: 73%
[10]; herbicide 15 g ae/ha alone
  % visual injury Obs: 73%
[11]; herbicide 7.5 g ae/ha alone
  % visual injury Obs: 45%
[11]; herbicide 10 g ae/ha alone
  % visual injury Obs: 55%
[11]; herbicide 15 g ae/ha alone
  % visual injury Obs: 55%
[12]; Compound A 7.5 g/ha
  Herbicidal Effects (% visual injury) ECHCG Obs: 90%
[12]; Compound A 10 g/ha
  Herbicidal Effects (% visual injury) ECHCG Obs: 94%
[13]; Compound A 7.5 g/ha
  Herbicidal Effects (% visual injury) POLCO Obs: 100%
[13]; Compound A 10 g/ha
  Herbicidal Effects (% visual injury) POLCO Obs: 100%
[13]; herbicide 7.5 g ae/ha alone
  % visual injury Obs: 68% and 83% and 65%
[13]; herbicide 10 g ae/ha alone
  % visual injury Obs: 70% and 93% and 78%
[13]; herbicide 15 g ae/ha alone
  % visual injury Obs: 85%
[14]; Compound A 7.5 g/ha
  Herbicidal Effects (% visual injury) RUMOB Obs: 8%
[14]; Compound A 10 g/ha
  Herbicidal Effects (% visual injury) RUMOB Obs: 18%
[15]; Compound A 7.5 g/ha
  Herbicidal Effects (% visual injury) CIRAR Obs: 50%
[15]; Compound A 10 g/ha
  Herbicidal Effects (% visual injury) CIRAR Obs: 60%
[15]; herbicide 7.5 g ae/ha alone
  % visual injury Obs: 25% and 40% and 50%
[15]; herbicide 15 g ae/ha alone
  % visual injury Obs: 63%
